# From patent publication US20130129656A1, “"GREEN" DIESTER AMINES AND PERSONAL CARE PRODUCTS” (CRODA, INC., priority 2010, published 2013)
# Tests used:
# [1] = system: daphnia magna; assay: Aquatic toxicity via method OECD 202 (Daphnia sp. Acute Immobilization Test); format: in vivo; settings: OECD 202, daphnia magna
# Protocol: In some embodiments, the compounds of the present invention are believed to have low aquatic toxicities. […] […] The testing methodology is described in “OECD Guideline for Testing of Chemicals,” section 202, the disclosure of which is incorporated by reference.
# (§1) Quat from example 3 was tested for biodegradability via method OECD 301B and Aquatic Toxicity via method OECD 202.
# [2] = Wet combing evaluation of lotions (combing force reduction)
# Protocol: Lotions with and without Example 3 Quat were prepared and evaluated for combing force reduction.
# [3] = Biodegradability via method OECD 301B; settings: after 29 days
# Source text: In some embodiments, the compounds of the present invention are biodegradable as provided by standardized OECD 301B testing. The testing methodology is described in the “OECD Guideline for Testing Chemicals,” section 301, the disclosure of which is incorporated by reference. Specifically, the compounds of the present invention showing a biodegradability of at least about 50% according to the OECD 301B testing method. In some embodiments, the compounds of the present invention have a biodegradability of between about 50% to about 81% according to the OECD 301B testing method.
# as §1
# [4] = Warehouse storage stability of flaked samples in a stability oven at 95° F; format: physicochemical; settings: flaked sample, stability oven set at 95° F, after 8 weeks
# Protocol: The diester compositions may be blended with, for example, alkylamidopropyl dimethylamines, such as Incromine BD supplied by Croda Inc., to yield a waxy flakeable or pastillatable composition with improved high temperature warehouse storage stability. Stability in this case being defined as resistance of the waxy particles from fusing together at elevated warehouse storage temperatures of about 95° F. Additional information on flakeability/pastillatability can be found in U.S. Pat. No. 6,638,497, the disclosure of which is hereby incorporated by reference herein.
# In some embodiments, it is desirable that the diesters of the claimed invention be either liquids or waxy solids in pastille form at room temperature for ease of use. […] By adding behenamidopropydimethylamine, the high temperature storage stability of the diester was increased, allowing for it to be warehoused or transported in conditions were the temperature can exceed 95° F. without the pastilles fusing together.
# [5] = wet combing, lotion with 1.5 % Example 3 Quat, average of 10 tresses
substance,measurement,setting,value
Methosulfate QUAT of PPG-6 N-Methyldiethanolamine Di-Behenate [Example 3],48 hour EC50 (aquatic toxicity),[1],> 100 µg/mL
same,Conditioning (in words),"[2]; lotion with the quat, versus lotion without",improved conditioning
same,% Change of Combing Force (gmf),[2]; [5],−84.62%
same,% Change of Total Work Done (Joules),[2]; [5],−88.76%
same,Biodegraded,[3],67%
same,Warehouse storage stability (state of flakes),[4],fused together
